Measured values as given in patent US7208146B2, “Methods of treating lymphoma and leukemia” (Genitope Corporation, priority 1996, dated 2007).

Tested on: parental BW5147.G.1.4 cells
Assay: MTX sensitivity (growth cut off) of the parental cell line
Format: cell-based
Method: The parental (i e., non-transfected) BW5147.G.1.4 cells barely grow in the presence of 10 nM MTX. By visual inspection 3 to 5 days after plating, greater than about 98 percent of the parental BW5147.G.1.4 cells are killed when 1×10^4 cells are placed in 2 ml of medium containing 20 nM MTX in the well of a 24 well plate (this level of MTX is referred to as the growth cut off for the parental BW5147.G.1.4 cell line). At 30 nM MTX, colonies of BW5147.G.1.4 cells are seen at a frequency of less than 10^−7.
The transfected and selected cells (“selectants”) are plated in a range of MTX concentrations ranging from 10 to 100 nM; the cells are plated at a density of 1 to 5×10^4 cells per well in a 24 well plate (Costar); the selectants are plated at the same density of cells as was used to determine the level of MTX at which > about 98% of the parental cells were killed. This is done because MTX irreversibly binds to DHFR so that the number of cells present in a given volume effects the concentration of MTX required to kill the cells; that is if a higher density of cell is used, a higher concentration of MTX will be required to kill about 98% of the cells [For example when the parental cells are plated at a density of 1×10^4 cells/2 ml medium in the well of a 24 well plate 20 nM MTX is sufficient to kill >98% cells in a 3 to 5 day assay. If the density is increased two-fold (1×10^4 cells in ml medium), 25 nM MTX is required for >98% killing. If 5×10^4 cells are placed in 2 ml of medium in the well of a 24 well plate, 30 nM MTX is required to achieve >98% killing.]
Eight selectant clones having the highest levels of expression of DR were chosen for further manipulation. These eight selectant clones were then tested for their sensitivity to MTX. Each clone was plated at a density of 2×10^4 cells/well in a 24 well plate. Each well contained 1 ml of medium containing RPMI-1640, 10% dialyzed FCS and MTX. The clones were grown in the presence of either 3, 10, 30, 60 or 90 nM MTX. Non-transfected BW5147.G.1.4 cells were also grown in the above range of MTX as a control. Clones which grew in MTX levels at least 2–3 fold higher than that tolerated by the parental BW5147.G.1.4 (typically less than or equal to 10 nM MTX) were selected for further analysis. Four of the selectant clones grew in greater than or equal to 30 nM MTX and were retained; these clones are the primary transfectants chosen for amplification. All 4 clones which grew in >30 nM MTX were analyzed for the ability to express DR molecules on the surface by an ELISA. The cell surface ELISA was performed as follows.

CN(Cc1cnc2nc(N)nc(N)c2n1)c1ccc(C(=O)N[C@@H](CCC(=O)O)C(=O)O)cc1 [MTX, methotrexate]
growth of parental cells in the presence of MTX (10 nM MTX): barely grow | parental BW5147.G.1.4 cells killed (20 nM MTX, 1×10^4 cells in 2 ml medium, well of a 24 well plate, visual inspection 3 to 5 days after plating): greater than 98% | frequency of colonies of BW5147.G.1.4 cells (30 nM MTX): less than 10^−7 | MTX concentration sufficient to kill >98% of parental cells (1×10^4 cells/2 ml medium, 24 well plate, 3 to 5 day assay): 20 nM | MTX level tolerated by parental BW5147.G.1.4 (2×10^4 cells/well in 1 ml, 24 well plate, RPMI-1640 with 10% dialyzed FCS): less than or equal to 10 nM | MTX concentration required for >98% killing of parental cells (5×10^4 cells in 2 ml medium, 24 well plate): 30 nM | MTX concentration required for >98% killing of parental cells (density increased two-fold (1×10^4 cells in ml medium)): 25 nM
